# Literature values in US20100323998A1, “TOPICAL COMPOSITION CONTAINING THE COMBINATION OF MUPIROCIN AND BECLOMETHASONE” (Glenmark Pharmaceuticals Ltd., priority 2007, published 2010).
# System: Gram-positive and Gram-negative bacteria
# Conditions: in vitro
smiles,measurement,value
"C/C(=C\C(=O)OCCCCCCCCC(=O)O)C[C@@H]1OCC(C[C@@H]2O[C@H]2[C@@H](C)[C@H](C)O)[C@@H](O)[C@H]1O (stereo partly drawn) [Mupirocin, (E)-(2S,3R,4R,5S)-5-[(2S,3S,4S,5S)-2,3-Epoxy-5-hydroxy-4-methylhexyl]tetrahydro-3,4-dihydroxy-β-methyl-2H-pyran-2-crotonic acid, ester with 9-hydroxynonanoic acid]",Growth of Gram-positive and Gram-negative bacteria,inhibits the growth
